The text below walks through data of ChEMBL document CHEMBL5131451, “BOPPY-based novel fluorescent dopamine D2 and D3 receptor ligands” (Bioorg Med Chem Lett, 2022).

One assay has as its target D(2) dopamine receptor (Homo sapiens, UniProt P14416). Description: Binding affinity to dopamine D2S receptor (unknown origin) by radioligand displacement assay.
The species named for another assay is Homo sapiens. Description: Ratio of Ki for binding affinity to D2S (unknown origin) to Ki for binding affinity to D3R (unknown origin).
A further assay deals with D(3) dopamine receptor (Homo sapiens, UniProt P35462). The assay can be described thus: Binding affinity to dopamine D3 receptor (unknown origin) by radioligand displacement assay.
Sequence of D(3) dopamine receptor (P35462 whole entry): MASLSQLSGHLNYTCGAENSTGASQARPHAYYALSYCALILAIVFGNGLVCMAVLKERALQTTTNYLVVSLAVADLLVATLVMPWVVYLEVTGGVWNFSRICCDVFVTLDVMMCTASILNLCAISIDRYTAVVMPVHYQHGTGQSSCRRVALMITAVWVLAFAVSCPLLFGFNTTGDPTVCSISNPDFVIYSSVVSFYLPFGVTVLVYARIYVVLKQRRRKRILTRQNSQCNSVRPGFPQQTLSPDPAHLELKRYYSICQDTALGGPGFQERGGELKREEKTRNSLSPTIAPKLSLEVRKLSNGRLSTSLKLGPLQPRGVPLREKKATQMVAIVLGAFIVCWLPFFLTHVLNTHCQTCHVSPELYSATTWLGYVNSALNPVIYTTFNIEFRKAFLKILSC

Sequence of D(2) dopamine receptor (P14416 whole entry): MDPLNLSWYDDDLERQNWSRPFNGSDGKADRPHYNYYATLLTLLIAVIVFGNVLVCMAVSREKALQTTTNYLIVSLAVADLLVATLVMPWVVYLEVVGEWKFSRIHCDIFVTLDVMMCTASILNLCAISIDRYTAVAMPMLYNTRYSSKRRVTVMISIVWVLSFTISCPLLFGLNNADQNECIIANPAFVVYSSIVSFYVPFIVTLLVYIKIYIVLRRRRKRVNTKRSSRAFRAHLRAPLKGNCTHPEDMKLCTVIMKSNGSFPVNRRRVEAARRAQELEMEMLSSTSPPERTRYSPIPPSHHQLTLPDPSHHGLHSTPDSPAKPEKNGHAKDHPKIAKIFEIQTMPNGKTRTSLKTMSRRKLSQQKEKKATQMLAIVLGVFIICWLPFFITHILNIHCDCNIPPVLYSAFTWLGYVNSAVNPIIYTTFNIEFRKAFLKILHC

As usually defined, the Ki is the equilibrium dissociation constant of an inhibitor or competing ligand from its target. Lower therefore signals tighter binding. Regarding `COc1ccccc1N1CCN(CCCCNC2=CC=CC3=[N+]4[N+](=Cc5c(C)cc(C)n5[B-]4(F)F)[B-](F)(F)N23)CC1`, the results for the Ki at D(2) dopamine receptor and at D(3) dopamine receptor were 81.1 nM and 27.2 nM, respectively. For the same compound, the Ratio Ki in the assay listed under Homo sapiens was 3.
Take `COc1ccccc1N1CCN(CCCCNC2=CC=CC3=[N+]4[N+](=Cc5cc6ccccc6n5[B-]4(F)F)[B-](F)(F)N23)CC1`: the Ki worked out at 182 nM at D(2) dopamine receptor and 16.7 nM on D(3) dopamine receptor. The Ratio Ki in the assay listed under Homo sapiens is 10.9.
Take `CCc1c(C)c2n(c1C)[B-](F)(F)[N+]1=C3C=CC=C(NCCCCN4CCN(c5cccc(Cl)c5Cl)CC4)N3[B-](F)(F)[N+]1=C2`: the Ki was determined as 497 nM on D(2) dopamine receptor and 52.1 nM on D(3) dopamine receptor. Besides, the Ratio Ki in the assay listed under Homo sapiens came to 9.
Take `Cc1cc(C)n2c1C=[N+]1[N+](=C3C=CC=C(NCCCCN4CCN(c5cccc(Cl)c5Cl)CC4)N3[B-]1(F)F)[B-]2(F)F`: the Ki at D(2) dopamine receptor was found to be 328 nM; on D(3) dopamine receptor, 22.5 nM. The Ratio Ki in the assay filed under Homo sapiens worked out at 14.6.
In the case of `CCc1c(C)c2n(c1C)[B-](F)(F)[N+]1=C3C=CC=C(NCCCCN4CCN(c5ccccc5OC)CC4)N3[B-](F)(F)[N+]1=C2`, the Ki at D(2) dopamine receptor turned out to be 309 nM; on D(3) dopamine receptor, 34.3 nM. Moreover, the Ratio Ki in the assay filed under Homo sapiens turned out to be 9.5.
